In PubChem BioAssay AID330 (DTP/NCI, 2004):
Values joined by “and” are separate entries in the source; they are usually repeats but may differ in a detail not shown here. Equal values may be shown once. Inconclusive results and toxic doses are left out.

System: P388 leukemia ip, CD2F1 mice, survival T/C
Test: NCI In Vivo Anticancer Drug Screen. Data for tumor model P388 Leukemia (intraperitoneal) in CD2F1 (CDF1) mice
Details: endpoint: median survival time, higher = longer survival
Method in brief: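 Mice carrying the transplanted tumor received test compound or vehicle. Survival was recorded in each group, and the value is the treated-group measurement divided by that of the vehicle-treated control group.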

[1] = dose: 50.0 mg/kg/injection, schedule: Q01DX009 (ip), vehicle: saline with Tween-80

SMILES: COc1cc2c(cc1OC)C(Cc1cc(Br)sc1Br)N(C(C)=O)CC2 (configuration not stated)
- T/C (dose: 100.0 mg/kg/injection, schedule: Q01DX001 (ip), vehicle: Klucel (hydroxypropylcellulose) (HPC)): 101 % of control
- T/C (dose: 200.0 mg/kg/injection, schedule: Q01DX001 (ip), vehicle: Klucel (hydroxypropylcellulose) (HPC)): 101 % of control
- T/C (dose: 400.0 mg/kg/injection, schedule: Q01DX001 (ip), vehicle: Klucel (hydroxypropylcellulose) (HPC)): 113 % of control

SMILES: COc1ccc2[nH]c3ccc4cc[n+](CCN5CCC(C6CCN(CC[n+]7ccc8ccc9[nH]c%10ccc(OC)cc%10c9c8c7)CC6)CC5)cc4c3c2c1
- T/C (dose: 1.0 mg/kg/injection, schedule: Q01DX005 (ip), vehicle: water): 165 % of control
- T/C (dose: 1.56 mg/kg/injection, schedule: Q01DX005 (ip), vehicle: Klucel (hydroxypropylcellulose) (HPC)): 159 % of control and 160 % of control
- T/C (dose: 2.0 mg/kg/injection, schedule: Q01DX005 (ip), vehicle: water): 160 % of control and 170 % of control
- T/C (dose: 3.12 mg/kg/injection, schedule: Q01DX005 (ip), vehicle: Klucel (hydroxypropylcellulose) (HPC)): 150 % of control and 166 % of control
- T/C (dose: 4.0 mg/kg/injection, schedule: Q01DX005 (ip), vehicle: water): 161 % of control and 182 % of control
- T/C (dose: 6.25 mg/kg/injection, schedule: Q01DX005 (ip), vehicle: Klucel (hydroxypropylcellulose) (HPC)): 167 % of control and 169 % of control
- T/C (dose: 6.25 mg/kg/injection, schedule: Q01DX005 (ip), vehicle: other): 161 % of control
- T/C (dose: 8.0 mg/kg/injection, schedule: Q01DX005 (ip), vehicle: water): 163 % of control and 173 % of control and 191 % of control
- T/C (dose: 12.5 mg/kg/injection, schedule: Q01DX005 (ip), vehicle: Klucel (hydroxypropylcellulose) (HPC)): 179 % of control and 201 % of control
- T/C (dose: 12.5 mg/kg/injection, schedule: Q01DX005 (ip), vehicle: other): 193 % of control
- T/C (dose: 16.0 mg/kg/injection, schedule: Q01DX005 (ip), vehicle: water): 160 % of control and 190 % of control and 221 % of control
- T/C (dose: 25.0 mg/kg/injection, schedule: Q01DX005 (ip), vehicle: Klucel (hydroxypropylcellulose) (HPC)): 179 % of control and 200 % of control and 212 % of control
- T/C (dose: 25.0 mg/kg/injection, schedule: Q01DX005 (ip), vehicle: other): 175 % of control and 204 % of control
- T/C (dose: 32.0 mg/kg/injection, schedule: Q01DX005 (ip), vehicle: water): 167 % of control and 185 % of control and 223 % of control
- T/C (dose: 50.0 mg/kg/injection, schedule: Q01DX005 (ip), vehicle: Klucel (hydroxypropylcellulose) (HPC)): 160 % of control and 224 % of control and 255 % of control
- T/C (dose: 50.0 mg/kg/injection, schedule: Q01DX005 (ip), vehicle: other): 153 % of control and 160 % of control
- T/C (dose: 100.0 mg/kg/injection, schedule: Q01DX005 (ip), vehicle: Klucel (hydroxypropylcellulose) (HPC)): 193 % of control
- T/C (dose: 200.0 mg/kg/injection, schedule: Q01DX005 (ip), vehicle: Klucel (hydroxypropylcellulose) (HPC)): 112 % of control

SMILES: O=[N+]([O-])c1ccc(OCC#CCOc2ccc([N+](=O)[O-])c(C(F)(F)F)c2)cc1C(F)(F)F
- T/C (dose: 50.0 mg/kg/injection, schedule: Q01DX009 (ip), vehicle: other): 105 % of control
- T/C (dose: 100.0 mg/kg/injection, schedule: Q01DX009 (ip), vehicle: other): 104 % of control
- T/C (dose: 200.0 mg/kg/injection, schedule: Q01DX009 (ip), vehicle: other): 102 % of control

SMILES: NCCO/C=C/C(N)C(=O)O (configuration not stated)
- T/C (dose: 31.2 mg/kg/injection, schedule: Q01DX009 (ip), vehicle: saline): 99 % of control
- T/C (dose: 62.5 mg/kg/injection, schedule: Q01DX009 (ip), vehicle: saline): 99 % of control
- T/C (dose: 125.0 mg/kg/injection, schedule: Q01DX009 (ip), vehicle: saline): 99 % of control

SMILES: Cc1cc(=O)c2ccc(N(C)C)cc2[nH]1
- T/C (dose: 50.0 mg/kg/injection, schedule: Q01DX005 (ip), vehicle: saline with Tween-80): 95 % of control
- T/C (dose: 100.0 mg/kg/injection, schedule: Q01DX005 (ip), vehicle: saline with Tween-80): 96 % of control
- T/C (dose: 200.0 mg/kg/injection, schedule: Q01DX005 (ip), vehicle: saline with Tween-80): 101 % of control

SMILES: C=CCNC(=S)N/N=C/c1nccc(-c2ccccc2)c1C
- T/C (dose: 25.0 mg/kg/injection, schedule: Q01DX009 (ip), vehicle: saline with Tween-80): 112 % of control
- T/C [1]: 86 % of control

SMILES: Cc1noc(/N=N/N(C)c2ccccc2)c1C
- T/C [1]: 103 % of control
- T/C (dose: 100.0 mg/kg/injection, schedule: Q01DX009 (ip), vehicle: saline with Tween-80): 96 % of control

SMILES: O=C(O)c1ccc(OCc2ccccc2)cc1
- T/C (dose: 50.0 mg/kg/injection, schedule: Q01DX009 (ip), vehicle: saline): 93 % of control
- T/C (dose: 100.0 mg/kg/injection, schedule: Q01DX009 (ip), vehicle: saline): 93 % of control

SMILES: OCCCCCCCCCCCC1C=CCC1 (configuration not stated)
- T/C (dose: 100.0 mg/kg/injection, schedule: Q01DX001 (ip), vehicle: saline): 101 % of control
- T/C (dose: 200.0 mg/kg/injection, schedule: Q01DX001 (ip), vehicle: saline): 101 % of control
- T/C (dose: 400.0 mg/kg/injection, schedule: Q01DX001 (ip), vehicle: saline): 107 % of control

SMILES: CCCCCCCCCCCCCCCCCN1CCS(=O)(=O)CC1
- T/C (dose: 50.0 mg/kg/injection, schedule: Q01DX009 (ip), vehicle: Klucel (hydroxypropylcellulose) (HPC)): 100 % of control
- T/C (dose: 100.0 mg/kg/injection, schedule: Q01DX009 (ip), vehicle: Klucel (hydroxypropylcellulose) (HPC)): 94 % of control
- T/C (dose: 200.0 mg/kg/injection, schedule: Q01DX009 (ip), vehicle: Klucel (hydroxypropylcellulose) (HPC)): 88 % of control
